US11628151B2, “N,N-bis-2-mercaptoethyl isophthalamide for the treatment of neurodegenerative diseases” (EMERAMED LIMITED, priority 2014, dated 2023)

Assays:
[1] = system: A549 and BEAS-2B cells; test: Particle-induced secretion of pro-inflammatory cytokines in lung epithelial cell lines (overall); assay type: cell-based
Procedure: Secretion of the pro-inflammatory cytokines interleukin (IL)-6, IL-8 (as well as GM-CSF and MCP-1) into cell media in response to particle exposure was measured in A549 and BEAS-2B cells using the following method.
Lung epithelial cells were seeded at 5×10^4 in 24-well plates. After pre-incubation with NBMI, the antioxidant compound, N-acetyl-L-cysteine (NAC), which was used as a positive control, or vehicle, for 3 hours the medium was removed.
Fresh media containing various particles (as below) in different concentrations was in a total volume of 0.5 ml for an additional 24 hours. The supernatants were then separated from the cells by centrifugation.
IL-8, IL-6, GM-CSF and MCP-1 were measured in the cell free fluid using the DuoSet ELISA Development kit (R&D Systems, Abingdon, UK) according to manufacturer's protocol.
Exposure to medium only served as negative control. Each experiment was performed twice with 4 replicates.
The effect of pre-incubation with 50 μM NBMI on particle-induced cytokine formation was tested at various concentrations of particles.

[2] = system: microglia; test: Internalization of Aβ42 by microglia; assay type: cell-based; details: following Aβ42 administration; FIG. 2B
Procedure: (§1) Aβ42 stock was solubilized in DMSO at a concentration of 2 mM, vortexed and sonicated for 2 minutes to ensure complete dissolution. Aβ42 was diluted in 50 mM NaPi, 100 mM NaCl (pH 7.4) buffer at a concentration of 200 μM and was used within 3 hours at a final concentration of 200 nM.
(§2) TNF-α secretion from primary microglia and the BV2 cell line was valued by a specific sandwich-type enzyme-linked immunoabsorbent assay (ELISA) (Duoset, R&D system) according to the manufacturer's instructions. Intracellular concentration of Aβ42 was measured using a specific sandwich-type ELISA assay (human Aβ42 kit, Invitrogen, KHB3441 and mouse/rat, IBL 27721; Immuno-Biological Laboratories Co., Ltd., Japan) according to the manufacturer's instructions.
N9 cells were treated with 200 nM Aβ42488 (Anaspect), and AR internalization was recorded in culture for 24 hours after AR administration using a CelIR microscope, with the image processed using CelIR software.

[3] = target: T1, Aβ42 (Homo sapiens, UniProt P05067); test: Aggregation state of Aβ42 in media and cell lysate of primary microglia cultures (ELISA); assay type: cell-based; details: in the media and in the cell lysate, FIG. 3
T1 construct: Aβ42 stock was solubilized in DMSO at a concentration of 2 mM; host or cells: added to primary microglia cultures
Procedure: Aβ42 stock was solubilized in DMSO at a concentration of 2 mM, vortexed and sonicated for 2 minutes to ensure complete dissolution. Aβ42 was diluted in 50 mM NaPi, 100 mM NaCl (pH 7.4) buffer at a concentration of 200 μM and was used within 3 hours at a final concentration of 200 nM. TNF-α secretion from primary microglia and the BV2 cell line was valued by a specific sandwich-type enzyme-linked immunoabsorbent assay (ELISA) (Duoset, R&D system) according to the manufacturer's instructions. Intracellular concentration of Aβ42 was measured using a specific sandwich-type ELISA assay (human Aβ42 kit, Invitrogen, KHB3441 and mouse/rat, IBL 27721; Immuno-Biological Laboratories Co., Ltd., Japan) according to the manufacturer's instructions. Homogenization was performed with a cold 4× volume of PBS supplemented with the 1× protease inhibitor cocktail, followed by the addition of a solution 8.2 M guanidine/82 mM Tris HCl (pH 8.0) to yield a solution with a 5M final guanidine concentration.

[4] = system: primary neurons incubated with oligomeric Aβ42; test: Aβ42-induced cell death in primary neurons co-cultured with N9 cells (MTT viability); assay type: cell-based, mice; details: primary neurons incubated with oligomeric Aβ42 (200 nM), NBMI 10 nM pre-treatment 30 minutes, FIG. 1
Procedure: as §1
Primary cultures of cortical neurons were prepared from the cerebral cortex of mice at embryonic stage 17 (E17). The cells from each cortex were seeded separately on poly-L-ornithine (Sigma) pre-coated 6-well plates at a density of 0.25×10^6 cells/cm^2 in Neurobasal media containing B27 supplement with antioxidant, 1% penstrep and 1% glutamine.
(§3) After 10 days' incubation, neurons were used in experiments. Where indicated, cells were pre-treated for 30 minutes with NBMI (10 nM) added directly to the cell culture medium.
To determine cell viability, cells were washed with PBS (pH 7.4). MTT solution (3-(4,5-dimethylthiazol-2yl)-2,5-diphenyl tetrazolium bromide) was added to cells for 30 minutes at 37° C. After three washes, the insoluble formazan product was dissolved in dimethyl sulfoxide. The optical density of each culture well was then measured using a micro-plate reader (Molecular Probes, Garching, Germany) at 550 nm. The optical density of formazan formed in control cells was taken as 100% of viability. […]

[5] = system: TNF-α; test: Primary microglia activation (TNF-α release, ELISA) following Aβ42 administration; assay type: cell-based; details: FIG. 2A
Procedure: as §1, §3, §2

T1 sequence (P05067 672-713 limits assumed): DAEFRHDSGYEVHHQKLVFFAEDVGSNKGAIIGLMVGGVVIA

Row | Compound | secretion of inflammatory cytokines ([1]; pre-incubation with 5 mM NAC (positive control)) | internalization of Aβ42 by microglia [2] | aggregation state of Aβ42 [3] | Aβ42-induced cell death [4] | primary microglia activation (evaluated as TNF-α release) [5] | particle-induced secretion of pro-inflammatory cytokines ([1]; both cell lines (A549, BEAS-2B), pre-incubation with 50 μM NBMI)
1 | CC(=O)N[C@@H](CS)C(=O)O [NAC, N-acetyl-L-cysteine, reference compound] | effective in reducing | – | – | – | – | –
2 | O=C(NCCS)c1cccc(C(=O)NCCS)c1 [NBMI, N,N-bis-2-mercaptoethyl isophthalamide] | – | modulated | changed | reduced | blocked | can reduce
